Data set [1] deals with recombinant NL4-3 virus (nef section replaced with Renilla luciferase gene) in MT-2 cells. Put plainly: HIV cell culture assay (antiviral activity, luciferase readout). Type of data set: cell-based. Conditions: Renilla, NL43, MT-2 cells infected for 4-5 days with recombinant NL4-3 Renilla luciferase virus, serial dilutions of compound. In short, it runs like this:
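Test compound in serial dilution was present while MT-2 cells were infected for 4–5 days with recombinant NL4-3 virus made in 293T cells. Antiviral activity was quantified as Renilla luciferase activity, read with a live-cell substrate. EC50 came from the median-effect equation.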

Data set [2] in a line: Compound cytotoxicity, XTT-based colorimetric assay. The class given is cell-based. Conditions: human, uninfected MT2 cells, day 4, XTT. In outline: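 Run under the antiviral-assay protocol but without virus. Viability was read on day 4 and CC50 values were derived from the readout.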

Drawing on US11505543B2, “4-oxo-3,4-dihydroquinazoline compounds as inhibitors of human immunodeficiency virus replication” (VIIV HEALTHCARE UK (NO.5) LIMITED, priority 2018, dated 2022), this text covers EC50 and CC50 for 14 molecules.

Bounds are passed on as bounds.

As for `Cc1cc(Cl)ccc1-c1ccc2c(=O)n(-c3ccc(S(=O)(=O)N4CCOCC4)cc3)c([C@H](Cc3cc(F)cc(F)c3)NC(=O)Cn3nc(C(F)F)c4c3C(F)(F)[C@@H]3C[C@H]43)nc2c1` [Example 15, N-((S)-1-(7-(4-chloro-2-methylphenyl)-3-(4-(morpholinosulfonyl)phenyl)-4-oxo-3,4-dihydroquinazolin-2-yl)-2-(3,5-difluorophenyl)ethyl)-2-((3bS,4aR)-3-(difluoromethyl)-5,5-difluoro-3b,4,4a,5-tetrahydro-1H-cyclopropa[3,4]cyclopenta[1,2-c]pyrazol-1-yl)acetamide], the EC50 (usually the midpoint of the concentration-response curve) in data set [1] is 43 nM. The half-maximal cytotoxic concentration (CC50) (as a rule, the concentration that lowers cell viability or growth by half) at 4 day in data set [2] was more than 1000 nM.
Taken in the same sequence, the figures for `O=C(Cn1ccc(C2CC2)n1)N[C@@H](Cc1cc(F)cc(F)c1)c1nc2cc(-c3ccc(Cl)cc3Cl)ccc2c(=O)n1-c1ccc(S(=O)(=O)N2CCOCC2)cc1` [Example 81, (S)-2-(3-cyclopropyl-1H-pyrazol-1-yl)-N-(1-(7-(2,4-dichlorophenyl)-3-(4-(morpholinosulfonyl)phenyl)-4-oxo-3,4-dihydroquinazolin-2-yl)-2-(3,5-difluorophenyl)ethyl)acetamide] were 56 nM and more than 1000 nM.
For `Cc1ncc(-c2ccc3c(=O)n(-c4ccc(Cl)c5c(NS(=O)(=O)C6CC6)nn(CC(F)F)c45)c([C@H](Cc4cc(F)cc(F)c4)NC(=O)Cn4nc(C(F)F)c5c4C(F)(F)[C@@H]4C[C@H]54)nc3c2)cn1` [Example 157, N-((S)-1-(3-(4-chloro-3-(cyclopropanesulfonamido)-1-(2,2-difluoroethyl)-1H-indazol-7-yl)-7-(2-methylpyrimidin-5-yl)-4-oxo-3,4-dihydroquinazolin-2-yl)-2-(3,5-difluorophenyl)ethyl)-2-((3bS,4aR)-3-(difluoromethyl)-5,5-difluoro-3b,4,4a,5-tetrahydro-1H-cyclopropa[3,4]cyclopenta[1,2-c]pyrazol-1-yl)acetamide], in that order: 0.06 nM and more than 500 nM.
With `Cn1nc(NS(C)(=O)=O)c2c(Cl)ccc(-n3c([C@H](Cc4cc(F)cc(F)c4)NC(=O)Cn4nc(C(F)F)cc4C(F)F)nc4cc(-c5ccccc5F)ccc4c3=O)c21` [Example 154, (S)-2-(3,5-bis(difluoromethyl)-1H-pyrazol-1-yl)-N-(1-(3-(4-chloro-1-methyl-3-(methylsulfonamido)-1H-indazol-7-yl)-7-(2-fluorophenyl)-4-oxo-3,4-dihydroquinazolin-2-yl)-2-(3,5-difluorophenyl)ethyl)acetamide], the EC50 in data set [1] came to 4.8 nM. For the same molecule, the CC50 at 4 day in data set [2] was more than 1000 nM.
For `Cn1nc(NS(C)(=O)=O)c2c(Cl)ccc(-n3c([C@H](Cc4cc(F)cc(F)c4)NC(=O)Cn4nc(C(F)F)c5c4C(F)(F)[C@@H]4C[C@H]54)nc4cc(-c5ccc(Cl)c(C(=O)O)c5)ccc4c3=O)c21` (atropisomer, axis not shown; (aR)) [Example 57], in that order: 17 nM and more than 1000 nM.
As to `Cc1n[nH]c(C)c1-c1ccc2c(=O)n(-c3ccc(Cl)c4c(NS(C)(=O)=O)nn(C)c34)c([C@H](Cc3cc(F)cc(F)c3)NC(=O)Cn3nc(C(F)F)c4c3C(F)(F)[C@@H]3C[C@H]43)nc2c1` (atropisomer, axis not shown; (aR)) [Example 89, N-((S)-1-(3-(4-chloro-1-methyl-3-(methylsulfonamido)-1H-indazol-7-yl)-7-(3,5-dimethyl-1H-pyrazol-4-yl)-4-oxo-3,4-dihydroquinazolin-2-yl)-2-(3,5-difluorophenyl)ethyl)-2-((3bS,4aR)-3-(difluoromethyl)-5,5-difluoro-3b,4,4a,5-tetrahydro-1H-cyclopropa[3,4]cyclopenta[1,2-c]pyrazol-1-yl)acetamide], the EC50 in data set [1] turned out to be 3.4 nM. The CC50 at 4 day in data set [2] was more than 1000 nM.
For `O=C(Cn1ccc(C2CC2)n1)N[C@@H](Cc1cc(F)cc(F)c1)c1nc2cc(-c3ccc(F)cc3F)ccc2c(=O)n1-c1ccc(S(=O)(=O)N2CCOCC2)cc1` [Example 12, (S)-2-(3-cyclopropyl-1H-pyrazol-1-yl)-N-(2-(3,5-difluorophenyl)-1-(7-(2,4-difluorophenyl)-3-(4-(morpholinosulfonyl)phenyl)-4-oxo-3,4-dihydroquinazolin-2-yl)ethyl)acetamide], in that order: 8.3 nM and more than 1000 nM.
Taken in the same sequence, the figures for `CC(C)n1ccc(CC(=O)N[C@@H](Cc2cc(F)cc(F)c2)c2nc3cc(-c4ccccc4F)ccc3c(=O)n2-c2ccc(Cl)c3c(NS(=O)(=O)C4CC4)nn(CC(F)F)c23)n1` [Example 140, (S)-N-(1-(3-(4-chloro-3-(cyclopropanesulfonamido)-1-(2,2-difluoroethyl)-1H-indazol-7-yl)-7-(2-fluorophenyl)-4-oxo-3,4-dihydroquinazolin-2-yl)-2-(3,5-difluorophenyl)ethyl)-2-(1-isopropyl-1H-pyrazol-3-yl)acetamide] were 0.35 nM and more than 500 nM.
Taken in the same sequence, the figures for `Cn1nc(NS(C)(=O)=O)c2c(Cl)ccc(-n3c([C@H](Cc4cc(F)cc(F)c4)NC(=O)Cn4nc(C(F)F)c5c4C(F)(F)[C@@H]4C[C@H]54)nc4cc(-c5c(F)cc(F)cc5F)ccc4c3=O)c21` [Example 172, N-((S)-1-(3-(4-chloro-1-methyl-3-(methylsulfonamido)-1H-indazol-7-yl)-4-oxo-7-(2,4,6-trifluorophenyl)-3,4-dihydroquinazolin-2-yl)-2-(3,5-difluorophenyl)ethyl)-2-((3bS,4aR)-3-(difluoromethyl)-5,5-difluoro-3b,4,4a,5-tetrahydro-1H-cyclopropa[3,4]cyclopenta[1,2-c]pyrazol-1-yl)acetamide] were 0.25 nM and more than 500 nM.
Consider `Cn1nc(NS(C)(=O)=O)c2c(Cl)ccc(-n3c([C@H](Cc4cc(F)cc(F)c4)NC(=O)Cn4nc(C(F)F)c5c4C(F)(F)[C@@H]4C[C@H]54)nc4cc(-c5ccc(C(=O)N6CCCCC6)cc5)ccc4c3=O)c21` (atropisomer, axis not shown; (aR)) [Example 34, N-((S)-1-(3-(4-chloro-1-methyl-3-(methylsulfonamido)-1H-indazol-7-yl)-4-oxo-7-(4-(piperidine-1-carbonyl)phenyl)-3,4-dihydroquinazolin-2-yl)-2-(3,5-difluorophenyl)ethyl)-2-((3bS,4aR)-3-(difluoromethyl)-5,5-difluoro-3b,4,4a,5-tetrahydro-1H-cyclopropa[3,4]cyclopenta[1,2-c]pyrazol-1-yl)acetamide], for which, in data set [1], the EC50 was determined as 0.46 nM. Moreover, in data set [2], the CC50 at 4 day is more than 1000 nM.
As for `COc1cccc(OC)c1-c1ccc2c(=O)n(-c3ccc(Cl)c4c(NS(C)(=O)=O)nn(C)c34)c([C@H](Cc3cc(F)cc(F)c3)NC(=O)Cn3nc(C(F)F)c4c3C(F)(F)[C@@H]3C[C@H]43)nc2c1` (atropisomer, axis not shown; (aR)) [Example 86, N-((S)-1-(3-(4-chloro-1-methyl-3-(methylsulfonamido)-1H-indazol-7-yl)-7-(2,6-dimethoxyphenyl)-4-oxo-3,4-dihydroquinazolin-2-yl)-2-(3,5-difluorophenyl)ethyl)-2-((3bS,4aR)-3-(difluoromethyl)-5,5-difluoro-3b,4,4a,5-tetrahydro-1H-cyclopropa[3,4]cyclopenta[1,2-c]pyrazol-1-yl)acetamide], the EC50 in data set [1] stood at 0.5 nM. The CC50 at 4 day in data set [2] was more than 1000 nM.
With `COc1cccc(OC)c1-c1ccc2c(=O)n(-c3ccc(S(=O)(=O)N4CCOCC4)cc3)c([C@H](Cc3cc(F)cc(F)c3)NC(=O)Cn3nc(C(F)F)c4c3C(F)(F)[C@@H]3C[C@H]43)nc2c1` [Example 83, 2-((3bS,4aR)-3-(difluoromethyl)-5,5-difluoro-3b,4,4a,5-tetrahydro-1H-cyclopropa[3,4]cyclopenta[1,2-c]pyrazol-1-yl)-N-((S)-2-(3,5-difluorophenyl)-1-(7-(2,6-dimethoxyphenyl)-3-(4-(morpholinosulfonyl)phenyl)-4-oxo-3,4-dihydroquinazolin-2-yl)ethyl)acetamide], the EC50 in data set [1] amounted to 5 nM. The CC50 at 4 day in data set [2] was more than 1000 nM.
Turning to `CS(=O)(=O)Nc1nn(CC(F)F)c2c(-n3c([C@H](Cc4cc(F)cc(F)c4)NC(=O)Cn4nc(C(F)F)c5c4C(F)(F)[C@@H]4C[C@H]54)nc4cc(-c5ccccc5S(C)(=O)=O)ccc4c3=O)ccc(Cl)c12` [Example 176, N-((S)-1-(3-(4-chloro-1-(2,2-difluoroethyl)-3-(methylsulfonamido)-1H-indazol-7-yl)-7-(2-(methylsulfonyl)phenyl)-4-oxo-3,4-dihydroquinazolin-2-yl)-2-(3,5-difluorophenyl)ethyl)-2-((3bS,4aR)-3-(difluoromethyl)-5,5-difluoro-3b,4,4a,5-tetrahydro-1H-cyclopropa[3,4]cyclopenta[1,2-c]pyrazol-1-yl)acetamide], in data set [1], the EC50 stood at 0.066 nM. Also, the CC50 at 4 day in data set [2] was more than 500 nM.
For `Cc1noc(C)c1-c1ccc2c(=O)n(-c3ccc(Cl)c4c(NS(C)(=O)=O)nn(C)c34)c([C@H](Cc3cc(F)cc(F)c3)NC(=O)Cn3nc(C(F)F)c4c3C(F)(F)[C@@H]3C[C@H]43)nc2c1` (atropisomer, axis not shown; (aR)) [Example 94, N-((S)-1-(3-(4-chloro-1-methyl-3-(methylsulfonamido)-1H-indazol-7-yl)-7-(3,5-dimethylisoxazol-4-yl)-4-oxo-3,4-dihydroquinazolin-2-yl)-2-(3,5-difluorophenyl)ethyl)-2-((3bS,4aR)-3-(difluoromethyl)-5,5-difluoro-3b,4,4a,5-tetrahydro-1H-cyclopropa[3,4]cyclopenta[1,2-c]pyrazol-1-yl)acetamide], in that order: 0.44 nM and more than 1000 nM.
